According to ChEMBL document CHEMBL1126331, “Nor-mefloquine: Stereospecific synthesis and biological properties” (1992):

How the values were obtained:
Rattus norvegicus = test: Percent decrease in blood pressure in conscious hypertensive rats, at a dose of 100 mg; assay type: functional
Mus musculus = test: Compound was evaluated in vivo against Plasmodium berghei in mice (Mus musculus) after oral administration; assay type: functional

Row | Compound | Decrease (Rattus norvegicus) | ED50 (Mus musculus)
1 | Cl.O[C@H](c1cc(C(F)(F)F)nc2c(C(F)(F)F)cccc12)[C@@H]1CCCN1 (single isomer, unassigned) | 15% | 1.8 mg/kg
2 | Cl.O[C@@H](c1cc(C(F)(F)F)nc2c(C(F)(F)F)cccc12)[C@H]1CCCCN1 [MEFLOQUINE HYDROCHLORIDE] | – | 1.8 mg/kg
